From a melting point compilation (Tetko et al.; mined from patent text by program, amines drawn as free bases though some values may be those of a salt) come the findings set out here.

A word on the melting point: it is the temperature, or range, at which the solid turns liquid. Turning to `O=c1[nH]ncc2cc(CCc3ccccc3)ccc12`, the melting point is 190 to 193 °C.

For `O=[N+]([O-])c1ccc2[nH]cc(Cc3ccc(F)cc3)c2c1`, the melting point lay within 142 to 144 °C. In the case of `Nc1nnc2c3c(c(N4CCCCC4)nn12)CCCC3`, the melting point lay in the range of 230 to 232 °C.

Compound `COC(=O)c1cc(S(C)(=O)=O)c(S(F)(F)(F)(F)F)cc1C` had a melting point of 127 °C.

Regarding `CC1(C)N=C(c2ccccc2)C(c2ccc(N)cc2)O1` (configuration not stated), the melting point was in the range of 162 to 163 °C. With `C[N+]1([O-])C(=O)C(F)N=C(c2ccccc2)c2cc(Cl)ccc21` (configuration not stated), the melting point lay in the range of 167 to 169 °C.

On to `COC(CCl)NC(=O)c1ccccc1` (configuration not stated), for which the melting point is 76.9 to 77.7 °C. Then `CN(Cc1cc2c(=O)c(C(=O)NCc3ccc(Cl)cc3)cn(C)c2o1)CC(O)c1ncccn1` (single isomer, unassigned; (+)), with 127 to 129 °C; and `Cc1nc(C(O)(c2nc(C)c(C)s2)C(C)(C)C)sc1C`, with 91 to 92 °C; and `CON1CCC2(CC1)NC(=O)C(Cl)(c1cc(C)ccc1C)C2=O` (configuration not stated), with 142 to 144 °C. On to `COC(=O)C(=O)c1ccc(OCCOc2ccc(OC)c(OC)c2)cc1`, for which the melting point was in the range of 93 to 94 °C. `CCOc1c(Cc2c[nH]c3ccccc23)[nH]c(=O)c(CC(C)C)[n+]1[O-]`: the melting point was in the range of 192 to 193 °C. Compound `CN(c1ccccc1)c1ncnc2cc(C(F)(F)F)ccc12` came in with a melting point of 135 to 137 °C. Then `CCN(CC)C(=O)C1(OC(=S)N(CC)CC)C=CC=NC1F` (configuration not stated), with 87 to 92 °C; and `Clc1ncnc2[nH]nc(-c3ccccc3)c12`, with over 250 °C. `CN(C)c1nnc(-c2ccc(S(C)=O)cc2)c(-c2ccc(S(C)=O)cc2)n1` (configuration not stated) displayed a melting point of 199 to 204 °C.

Take `CN1C(=O)C(c2ccc(OC(F)F)cc2)(c2cccc(CCCC(F)(F)F)c2)N=C1N` (configuration not stated): the melting point is 70 °C. Then `CC(=O)Nc1nc(C)c(CCCl)s1`, with 172 to 174 °C; and `C=CC(C)(C)C(O)C(Oc1ccc(Cl)cc1)n1ccnc1` (configuration not stated), with 88 to 90 °C; and `O=C(O)c1ccc(CN(C(=O)Nc2cc(C(F)(F)F)cc(C(F)(F)F)c2)c2ccc(C3CCCCC3)cc2)cc1`, with 148 to 150 °C. For `CCS(=O)(=O)c1ccccc1S(N)(=O)=O`, the melting point lay within 179 to 181 °C. Compound `CCOC(=O)C1=C(C)N=C(N)N(C(=O)OCC)C1c1cccc([N+](=O)[O-])c1` (configuration not stated) had a melting point of 166 to 168 °C. In turn, `CCOC(=O)c1c(O)c2cccnc2n(Cc2ccc(OC)cc2)c1=O` gave a melting point of 153 °C. Turning to `O=c1nc(NCN2CCOCC2)c(F)cn1CN1CCOCC1`, the melting point lay in the range of 156 to 158 °C.

Compound `CCCC(CO)n1cnc(C(N)=O)c1` (configuration not stated) came in with a melting point of 160 °C.

For `O=S(=O)(NCC1CCOCC1)c1ccc(Cl)cc1`, the melting point fell in the range of 118 to 119 °C. Compound `CC(=O)NCc1nc(-c2csc(N=C(N)N)n2)cs1` displayed a melting point of 255 to 256 °C. Compound `CCc1nc2c(N)nc3cc(CCC(=O)N(C)C)ccc3c2n1CC1CCOCC1` returned a melting point of 219 to 220 °C. The value for `CC[C@H](C1CC1)n1cc(Cl)nc(N2CCc3cc(Cl)cc(Cl)c32)c1=O` was 157 to 159 °C. The value for `CC(O)(c1ccc(C#N)cc1)c1cncs1` (configuration not stated) was 162 to 164 °C. The value for `CC(Cc1cc(-c2ccccc2)nc2ccccc12)C(=O)N(C)C1CCCCC1` (configuration not stated) was 160 °C; that for `CN(C(=O)c1cc2ccccc2[nH]1)C1N=C(c2ccccc2)c2ccccc2NC1=O` (racemic) was 287 to 288 °C.

In turn, `CC(=O)N(CC(=O)O)C[C@H]1O[C@H](c2ccccc2Cl)c2cc(Cl)ccc2N(Cc2ccccc2)C1=O` (relative stereo) returned a melting point of 143 to 145 °C. For the compound `Cc1sc(C(N)=O)c2c1-c1c(cnn1Cc1ccccc1)CC2`, the melting point fell in the range of 205 to 206 °C. Then `COC(=O)[C@@H]1C[C@H](O)C(=O)[C@@H]2[C@@]3(C)C[C@@H](c4ccoc4)OC(=O)[C@H]3CC[C@]21C`, with 211 to 214 °C. The value for `CCOC(=O)Cn1cc(-c2ccc(F)cc2)c(-c2ccc(S(C)(=O)=O)cc2)n1` was 116 to 118 °C; that for `O=c1[nH]c2ccc(Cl)cc2n1C1CCNCC1` was over 300 °C; that for `CC(=O)NC(C)(C)CNc1c(C)c(C)n2nnnc2c1[N+](=O)[O-]` was 200 to 202 °C.

The compound `COc1ccc(CN2C(=O)C3(COc4cc5c(cc43)OCO5)c3ccccc32)cc1` (configuration not stated) showed a melting point of 147 to 148 °C. As for `COC(=O)c1ccc(OCC2CC(=O)N(c3ccc(O)cc3)C2)cc1` (configuration not stated), the melting point was 141 to 144 °C.

As to `CN(Cc1cc2c(=O)c(C(=O)NCc3ccc(Cl)cc3)cn(C)c2s1)C[C@@H](O)c1ccc([N+](=O)[O-])cc1`, the melting point is 181 to 183 °C. The value for `Nc1nc(O)c2cc(CN(CCF)c3ccc(C(=O)N[C@@H](CCC(=O)O)C(=O)O)cc3)ccc2n1` was over 350 °C; that for `CN1CNC(=S)N(c2ccccc2)C1` was 175 to 176 °C.

The compound `Oc1ccc2[nH]cc(CCCCN3CCN(c4ccc5c(c4)CCCO5)CC3)c2c1` gave a melting point of 220 to 222 °C. Compound `COc1ccc(N(C=C(C#N)C#N)N=C(C#N)C#N)cc1` came in with a melting point of 143 to 145 °C.

Consider `O=c1[nH]c2cc([N+](=O)[O-])c3c(c2[nH]c1=O)CN(S(=O)(=O)c1cccs1)CC3`, for which the melting point is over 300 °C. For `CC1(C)CC(=O)C(C(=O)Nc2ccc(C(F)(F)F)cc2)C(=O)O1` (configuration not stated), the melting point was determined as 176 °C. `O=C(NC(Cc1ccc(C(F)(F)F)cc1)C(O)c1ccc(F)cc1)c1cccc(-c2ccccc2)c1` (configuration not stated): the melting point lay in the range of 165 to 166 °C. The value for `O=C(O)c1cccc(C2Oc3ccccc3C(O)=C2Cc2ccccc2)c1` (configuration not stated) was 210 to 212 °C. The value for `O=C(NCCc1ccccc1)Nc1ccc2ncc(Br)cc2n1` was 245 to 246 °C; that for `CCc1c(NC(=O)c2cc3c(s2)CCCC3)cccc1-c1cc(N)c(=O)n(C)c1` was 210 to 211 °C. As for `S=C(NCCCCN(Cc1ccc(Cl)c(Cl)c1)c1ccc(Br)cn1)NCCCc1c[nH]cn1`, the melting point lay in the range of 63 to 67 °C.

Consider `CN1C(=O)CCn2nc(-c3ccc(F)cc3)c(-c3ccncc3)c21`, for which the melting point is 185 to 186 °C.

Turning to `CCCCCCCCCCCCc1cnn(C(C(=O)Nc2c(OC)cc(OC)cc2OC)c2ccccc2)c1` (configuration not stated), the melting point was 77 to 79 °C. As for `CCCCN(CCCC)Cc1cc(NC(=O)Nc2c(C(C)C)cccc2C(C)C)n(Cc2ccccc2)n1`, the melting point was 149 to 152 °C. `NC[C@@H]1CC[C@H](C(=O)O)C1` (relative stereo) returned a melting point of 186 to 188 °C. For `COC(=O)NCc1cccc(-c2ccnc3c(C(=O)c4ccco4)cnn23)c1`, the melting point lay within 152 to 154 °C.

As to `CCn1cc(C(=O)O)c(=O)c2cc(F)c(N3CCCC3)nc21`, the melting point lay within 299 to 300 °C. `CCOC(=O)CNC(=O)CCCCCNC(=O)c1ccc(F)cc1` displayed a melting point of 121 to 122 °C.

Consider `O=C1Cc2cc(NCc3ccccc3)ccc2N1`, for which the melting point was 203 to 206 °C. Consider `COc1cc(C(=O)N[C@@H]2CCN(C)C2)ccc1Nc1ncc2c(n1)N(C1CCCCC1)CC(F)(F)C(=O)N2C`, for which the melting point was 98 to 99 °C. With `CC(C)(C)c1ccc(Cn2ccc3cc(Br)ccc32)cc1`, the melting point lay within 108 to 109 °C. Then `Cc1ncc(CN)c(N)n1`, with 155 °C; and `CC(C)(C)c1ccc(CCC(=O)CCC2CCCCCC2)cc1NC(=O)CC1c2ccccc2Oc2ccccc21`, with 136 to 137 °C. With `CN(C)Cc1ccc(CSCCNC(=NC(=O)CNN2C(=O)c3ccccc3C2=O)N(C)N=Cc2ccccc2)o1`, the melting point came to 115 °C. Regarding `O=S(=O)(CC1(c2ccccc2)CO1)c1ccccc1` (configuration not stated), the melting point was found to be 89 °C.

Take `COc1cc(O)c(C(=O)C=Cc2cccnc2)c(OC)c1`: the melting point was 158 °C. The value for `Clc1ncnc(Cl)c1C1OCCO1` was 108 to 110 °C; that for `CS(C)=Nc1nccnc1Cl` was 106 to 108 °C; that for `CCN(c1ccc(C(=O)Nc2cn3cc(Cl)ccc3n2)cc1)S(C)(=O)=O` was 245 to 247 °C. In turn, `O=C(Nc1ccc(CN2C(=O)CNC2=O)cc1)c1cc(=O)c2ccccc2o1` returned a melting point of 258 to 261 °C. Take `CCCOC(=O)c1ccc(C#CC2(O)CN3CCC2CC3)cc1O` (configuration not stated): the melting point was 173 to 175 °C. For `CCCCC(=O)N(Cc1ccc(Br)cc1)[C@H](C(=O)O)C(C)C`, the melting point amounted to 123 °C. Regarding `COc1cc(C2CCN(C(=O)C3CCN3)CC2)ccc1Nc1ncc2ccc(-c3ccccc3OC)n2n1` (configuration not stated), the melting point is 103 to 112 °C. Compound `Nc1ccc(C(=O)N2CCCCc3sccc32)cc1` gave a melting point of 168 to 172 °C. Compound `COc1ccc(S(=O)(=O)C(Cc2ccccc2)C(=O)NO)cc1` (configuration not stated) showed a melting point of 180 °C. For the compound `O=C(Nc1ccc(C2=CCN(C(=O)Nc3ccc(OCC(O)CO)cc3Cl)CC2)cc1)Nc1ccccc1F` (configuration not stated), the melting point is 161 to 165 °C. As to `CC(C)CCCC(C)C1CC(O)C2=C3C(O)CC4CC(OC(=O)c5ccccc5)CCC4(C)C3CCC21C` (configuration not stated), the melting point lay in the range of 178 to 179 °C. The compound `Cc1cc(NC(=O)c2c(Cl)cccc2Cl)c2nccc(-n3ccnc3)c2c1` returned a melting point of 260 to 261 °C.

`CN(Cc1ccc(NC(=O)C2=Cc3cc(-c4cccc(C(F)(F)F)c4)ccc3S(=O)(=O)CC2)cc1)C1CCOCC1` came in with a melting point of 236 to 238 °C. Then `CC1CCc2ccc(N)c3c(=O)c(C(=O)O)cn1c23` (configuration not stated), with 247 to 249 °C. `CN(c1cccc(-c2ccnc3c(C(=O)c4cccs4)cnn23)c1)S(C)(=O)=O` registered a melting point of 169 to 170 °C. Turning to `COc1ccc(C2=NN(C3CCSCC3)C(=O)[C@H]3CC=CC[C@@H]23)cc1OC` (relative stereo), the melting point was in the range of 140 to 141 °C. For `CC1=C(C(=O)N(C)Cc2ccc(Cl)cc2)SC2=NC(C)(C)CN21`, the melting point is 139 °C.

Compound `CP(C)(=O)C1CC(c2ccccc2)=NO1` (configuration not stated) displayed a melting point of 153 °C. The value for `COc1ccccc1CNc1ccc2cc(Nc3ncc(C(F)(F)F)o3)ccc2n1` was 166 °C. For the compound `COC(=O)C1C(C)CC2C3CCC4CC(O)CCC4(C)C3C(=O)CC21C` (configuration not stated), the melting point lay within 173 to 174 °C.
